Key:
Assay in all cases: viability relative to DMSO control (fraction); higher = less drug effect (more viable cells)
Details in all cases: 48 h
[1] = system: primary AML patient cells (S055)
How it was run: (§1)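 Cells were incubated for 48 h at 37 °C and 5% CO2 in RPMI-1640 with penicillin/streptomycin, L-glutamine and human serum, at 4 × 10^4 cells per well in 384-well plates with compounds pre-plated at five concentrations, one well each. These were primary mononuclear tumour cells, fresh or cryopreserved, Ficoll-isolated from blood or bone marrow or obtained from processed lymph node. Viability values are CellTiter-Glo luminescence relative to the median of 16 inner DMSO wells.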

[2] = system: primary AML patient cells (S072)
How it was run: as §1

[3] = system: primary MCL patient cells (S068)
How it was run: as §1

[4] = system: primary BL patient cells (S005)
How it was run: as §1

[5] = system: primary AML patient cells (S056)
How it was run: as §1

[6] = system: primary FL patient cells (S087)
How it was run: as §1

[7] = system: primary ALL patient cells (S048)
How it was run: as §1

[8] = system: primary AML patient cells (S009)
How it was run: as §1

[9] = system: primary ALL patient cells (S088)
How it was run: as §1

[10] = system: primary FL patient cells (S022)
How it was run: as §1

[11] = system: primary B-PLL patient cells (S016)
How it was run: as §1

[12] = system: primary AML patient cells (S060)
How it was run: as §1

[13] = system: primary CLL patient cells (S031)
How it was run: as §1

[14] = system: primary T-PLL patient cells (S008)
How it was run: as §1

[15] = system: primary MCL patient cells (S041)
How it was run: as §1

[16] = system: primary AML patient cells (S071)
How it was run: as §1

[17] = system: primary MCL patient cells (S053)
How it was run: as §1

[18] = system: primary DLBCL patient cells (S082)
How it was run: as §1

[19] = system: primary MCL patient cells (S063)
How it was run: as §1

[20] = system: primary AML patient cells (S079)
How it was run: as §1

Compound: Nc1nc(Cl)nc2c1ncn2[C@@H]1O[C@H](CO)[C@@H](O)[C@@H]1F [Clofarabine]
- viability ([1]; 0.024 µM): 0.951
- viability ([1]; 0.12 µM): 0.792
- viability ([1]; 0.6 µM): 0.677
- viability ([1]; 3 µM): 0.507
- viability ([1]; 15 µM): 0.446
- viability ([2]; 0.024 µM): 0.863
- viability ([2]; 0.12 µM): 0.762
- viability ([2]; 0.6 µM): 0.587
- viability ([2]; 3 µM): 0.521
- viability ([2]; 15 µM): 0.407
- viability ([3]; 0.024 µM): 0.522
- viability ([3]; 0.12 µM): 0.301
- viability ([3]; 0.6 µM): 0.203
- viability ([3]; 3 µM): 0.156
- viability ([3]; 15 µM): 0.128
- viability ([4]; 0.024 µM): 0.929
- viability ([4]; 0.12 µM): 0.925
- viability ([4]; 0.6 µM): 0.761
- viability ([4]; 3 µM): 0.882
- viability ([4]; 15 µM): 0.735
- viability ([5]; 0.024 µM): 1
- viability ([5]; 0.12 µM): 0.413
- viability ([5]; 0.6 µM): 0.288
- viability ([5]; 3 µM): 0.277
- viability ([5]; 15 µM): 0.303
- viability ([6]; 0.024 µM): 0.823
- viability ([6]; 0.12 µM): 0.673
- viability ([6]; 0.6 µM): 0.587
- viability ([6]; 3 µM): 0.536
- viability ([6]; 15 µM): 0.547
- viability ([7]; 0.024 µM): 0.345
- viability ([7]; 0.12 µM): 0.0686
- viability ([7]; 0.6 µM): 0.0335
- viability ([7]; 3 µM): 0.0271
- viability ([7]; 15 µM): 0.0269
- viability ([8]; 0.024 µM): 0.585
- viability ([8]; 0.12 µM): 0.541
- viability ([8]; 0.6 µM): 0.391
- viability ([8]; 3 µM): 0.381
- viability ([8]; 15 µM): 0.258
- viability ([9]; 0.024 µM): 0.569
- viability ([9]; 0.12 µM): 0.254
- viability ([9]; 0.6 µM): 0.203
- viability ([9]; 3 µM): 0.173
- viability ([9]; 15 µM): 0.109
- viability ([10]; 0.024 µM): 0.817
- viability ([10]; 0.12 µM): 0.643
- viability ([10]; 0.6 µM): 0.457
- viability ([10]; 3 µM): 0.306
- viability ([10]; 15 µM): 0.256
- viability ([11]; 0.024 µM): 0.711
- viability ([11]; 0.12 µM): 0.332
- viability ([11]; 0.6 µM): 0.0601
- viability ([11]; 3 µM): 0.034
- viability ([11]; 15 µM): 0.0319
- viability ([12]; 0.024 µM): 1.09
- viability ([12]; 0.12 µM): 1.06
- viability ([12]; 0.6 µM): 0.723
- viability ([12]; 3 µM): 0.402
- viability ([12]; 15 µM): 0.126
- viability ([13]; 0.024 µM): 0.424
- viability ([13]; 0.12 µM): 0.0924
- viability ([13]; 0.6 µM): 0.0411
- viability ([13]; 3 µM): 0.0349
- viability ([13]; 15 µM): 0.0384
- viability ([14]; 0.024 µM): 0.989
- viability ([14]; 0.12 µM): 0.864
- viability ([14]; 0.6 µM): 0.64
- viability ([14]; 3 µM): 0.562
- viability ([14]; 15 µM): 0.551
- viability ([15]; 0.024 µM): 0.862
- viability ([15]; 0.12 µM): 0.254
- viability ([15]; 0.6 µM): 0.0698
- viability ([15]; 3 µM): 0.0397
- viability ([15]; 15 µM): 0.0361
- viability ([16]; 0.024 µM): 0.646
- viability ([16]; 0.12 µM): 0.298
- viability ([16]; 0.6 µM): 0.219
- viability ([16]; 3 µM): 0.217
- viability ([16]; 15 µM): 0.211
- viability ([17]; 0.024 µM): 0.492
- viability ([17]; 0.12 µM): 0.356
- viability ([17]; 0.6 µM): 0.266
- viability ([17]; 3 µM): 0.255
- viability ([17]; 15 µM): 0.211
- viability ([18]; 0.024 µM): 0.834
- viability ([18]; 0.12 µM): 0.53
- viability ([18]; 0.6 µM): 0.377
- viability ([18]; 3 µM): 0.362
- viability ([18]; 15 µM): 0.319
- viability ([19]; 0.024 µM): 0.912
- viability ([19]; 0.12 µM): 0.736
- viability ([19]; 0.6 µM): 0.245
- viability ([19]; 3 µM): 0.0814
- viability ([19]; 15 µM): 0.0383
- viability ([20]; 0.024 µM): 0.804
- viability ([20]; 0.12 µM): 0.512
- viability ([20]; 0.6 µM): 0.285
- viability ([20]; 3 µM): 0.139
- viability ([20]; 15 µM): 0.0818

Compound: CC1(COc2ccc3c(c2)ncn3-c2ccc3cccc(N4CCC(N)CC4)c3n2)COC1 [Crenolanib]
- viability ([1]; 0.016 µM): 1.12
- viability ([1]; 0.08 µM): 1.08
- viability ([1]; 0.4 µM): 1.11
- viability ([1]; 2 µM): 1.12
- viability ([1]; 10 µM): 0.381
- viability ([2]; 0.016 µM): 0.891
- viability ([2]; 0.08 µM): 0.982
- viability ([2]; 0.4 µM): 0.793
- viability ([2]; 2 µM): 0.742
- viability ([2]; 10 µM): 0.0532
- viability ([3]; 0.016 µM): 0.812
- viability ([3]; 0.08 µM): 0.846
- viability ([3]; 0.4 µM): 0.572
- viability ([3]; 2 µM): 0.417
- viability ([3]; 10 µM): 0.031
- viability ([4]; 0.016 µM): 0.9
- viability ([4]; 0.08 µM): 0.959
- viability ([4]; 0.4 µM): 0.896
- viability ([4]; 2 µM): 0.913
- viability ([4]; 10 µM): 0.414
- viability ([5]; 0.016 µM): 0.613
- viability ([5]; 0.08 µM): 1.35
- viability ([5]; 0.4 µM): 0.631
- viability ([5]; 2 µM): 0.73
- viability ([5]; 10 µM): 0.157
- viability ([6]; 0.016 µM): 1.02
- viability ([6]; 0.08 µM): 0.971
- viability ([6]; 0.4 µM): 1
- viability ([6]; 2 µM): 0.847
- viability ([6]; 10 µM): 0.357
- viability ([7]; 0.016 µM): 0.85
- viability ([7]; 0.08 µM): 0.851
- viability ([7]; 0.4 µM): 0.797
- viability ([7]; 2 µM): 0.554
- viability ([7]; 10 µM): 0.418
- viability ([8]; 0.016 µM): 0.926
- viability ([8]; 0.08 µM): 0.979
- viability ([8]; 0.4 µM): 0.921
- viability ([8]; 2 µM): 2.2
- viability ([8]; 10 µM): 0.301
- viability ([9]; 0.016 µM): 0.695
- viability ([9]; 0.08 µM): 0.674
- viability ([9]; 0.4 µM): 0.584
- viability ([9]; 2 µM): 0.439
- viability ([9]; 10 µM): 0.033
- viability ([10]; 0.016 µM): 0.991
- viability ([10]; 0.08 µM): 1.07
- viability ([10]; 0.4 µM): 0.966
- viability ([10]; 2 µM): 0.743
- viability ([10]; 10 µM): 0.0846
- viability ([11]; 0.016 µM): 1.04
- viability ([11]; 0.08 µM): 1.24
- viability ([11]; 0.4 µM): 0.794
- viability ([11]; 2 µM): 0.553
- viability ([11]; 10 µM): 0.0382
- viability ([12]; 0.016 µM): 1.12
- viability ([12]; 0.08 µM): 1.1
- viability ([12]; 0.4 µM): 1.05
- viability ([12]; 2 µM): 1.02
- viability ([12]; 10 µM): 0.0351
- viability ([13]; 0.016 µM): 1.09
- viability ([13]; 0.08 µM): 1.13
- viability ([13]; 0.4 µM): 1.02
- viability ([13]; 2 µM): 0.305
- viability ([13]; 10 µM): 0.0182
- viability ([14]; 0.016 µM): 0.989
- viability ([14]; 0.08 µM): 1.04
- viability ([14]; 0.4 µM): 1.06
- viability ([14]; 2 µM): 1.07
- viability ([14]; 10 µM): 0.107
- viability ([15]; 0.016 µM): 1.08
- viability ([15]; 0.08 µM): 1.07
- viability ([15]; 0.4 µM): 0.983
- viability ([15]; 2 µM): 0.447
- viability ([15]; 10 µM): 0.0254
- viability ([16]; 0.016 µM): 0.672
- viability ([16]; 0.08 µM): 0.712
- viability ([16]; 0.4 µM): 0.778
- viability ([16]; 2 µM): 1.38
- viability ([16]; 10 µM): 0.103
- viability ([17]; 0.016 µM): 1.03
- viability ([17]; 0.08 µM): 1.07
- viability ([17]; 0.4 µM): 1.12
- viability ([17]; 2 µM): 0.963
- viability ([17]; 10 µM): 0.348
- viability ([18]; 0.016 µM): 1
- viability ([18]; 0.08 µM): 1.12
- viability ([18]; 0.4 µM): 1.07
- viability ([18]; 2 µM): 0.624
- viability ([18]; 10 µM): 0.0262
- viability ([19]; 0.016 µM): 1.08
- viability ([19]; 0.08 µM): 1.13
- viability ([19]; 0.4 µM): 0.958
- viability ([19]; 2 µM): 0.83
- viability ([19]; 10 µM): 0.0336
- viability ([20]; 0.016 µM): 1.02
- viability ([20]; 0.08 µM): 1.17
- viability ([20]; 0.4 µM): 0.996
- viability ([20]; 2 µM): 0.889
- viability ([20]; 10 µM): 0.0548

Source: the supplement of paper PMC10733146
